Laboratory results: patent US12077503B2, “Substituted cyclic amides and their use as herbicides” (FMC CORPORATION, priority 2015, dated 2024)

Key:
Type in all cases: in vivo
[1] = test system: barnyardgrass (Echinochloa crus-galli); experiment: Test A preemergence; conditions: for Plant response rating, Barnyardgrass: 125 g ai/ha; for Barnyardgrass plant response rating (0 to 100 scale, 0 is no effect, 100 is complete control): 500 g ai/ha, visual injury approx. 10 d
How it was run: (§1)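 Seeds sprayed preemergence with a directed soil spray, or plants at 2 to 10 cm height and one- to two-leaf stage sprayed postemergence, with test chemicals in a non-phytotoxic solvent mixture containing surfactant, in loam soil–sand blend. Injury rated visually against untreated controls after about 10 d in greenhouse, 0 (no effect) to 100 (complete control).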

[2] = test system: ragweed (common ragweed, Ambrosia elatior); experiment: Test A preemergence; conditions: for Plant response rating, Ragweed: 125 g ai/ha; for Ragweed plant response rating (0 to 100 scale, 0 is no effect, 100 is complete control): 500 g ai/ha, visual injury approx. 10 d
How it was run: as §1

[3] = test system: pigweed (Amaranthus retroflexus); experiment: Test A preemergence; conditions: for Plant response rating, Pigweed: 125 g ai/ha; for Pigweed plant response rating (0 to 100 scale, 0 is no effect, 100 is complete control): 500 g ai/ha, visual injury approx. 10 d
[4] = test system: ryegrass, Italian (Italian ryegrass, Lolium multiflorum); experiment: Test A preemergence; conditions: for Plant response rating, Ryegrass, Italian: 125 g ai/ha; for Ryegrass, Italian plant response rating (0 to 100 scale, 0 is no effect, 100 is complete control): 500 g ai/ha, visual injury approx. 10 d
How it was run: as §1

Kochia (Kochia scoparia) [5] = experiment: Test A preemergence; conditions: for Plant response rating, Kochia: 125 g ai/ha; for Kochia plant response rating (0 to 100 scale, 0 is no effect, 100 is complete control): 500 g ai/ha, visual injury approx. 10 d
How it was run: as §1

[6] = test system: giant foxtail (Setaria faberii); experiment: Test A preemergence; conditions: for Plant response rating, Foxtail, Giant: 125 g ai/ha; for Foxtail, Giant plant response rating (0 to 100 scale, 0 is no effect, 100 is complete control): 500 g ai/ha, visual injury approx. 10 d
How it was run: as §1

[7] = test system: barnyardgrass (Echinochloa crus-galli); experiment: Test B flooded paddy test; conditions: Flood, 250 g ai/ha; 0 to 100 scale where 0 is no effect and 100 is complete control; 13 to 15 d
How it was run: (§2)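 Greenhouse paddy pots with 2-leaf stage plants received compound by direct addition to floodwater 3 cm deep, kept at that level. Scored visually at 13–15 d versus controls (0 no effect; 100 complete control).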

rice (Oryra sativa) = experiment: Test B flooded paddy test; conditions: Flood, 250 g ai/ha; 0 to 100 scale where 0 is no effect and 100 is complete control; 13 to 15 d
How it was run: as §2

[8] = test system: sedge, umbrella (small-flower umbrella sedge, Cyperus difformis); experiment: Test B flooded paddy test; conditions: Flood, 250 g ai/ha; 0 to 100 scale where 0 is no effect and 100 is complete control; 13 to 15 d
How it was run: as §2

[9] = test system: ducksalad (Heteranthera limosa); experiment: Test B flooded paddy test; conditions: Flood, 250 g ai/ha; 0 to 100 scale where 0 is no effect and 100 is complete control; 13 to 15 d
How it was run: as §2

[10] = test system: barnyardgrass (Echinochloa crus-galli); experiment: Test C flooded paddy test; conditions: Flood, 0 is no effect, 100 is complete control
From the text: (§3) Plant species in the flooded paddy test consisted of rice (Oryza sativa), sedge, umbrella (small-flower umbrella sedge, Cyperus difformis), ducksalad (Heteranthera limosa), and barnyardgrass (Echinochloa crus-galli) grown to the 2-leaf stage for testing. At time of treatment, test pots were flooded to 3 cm above the soil surface, treated by application of test compounds directly to the paddy water, and then maintained at that water depth for the duration of the test. Treated plants and controls were maintained in a greenhouse for 13 to 15 d, after which time all species were compared to controls and visually evaluated. Plant response ratings, summarized in Table C, are based on a scale of 0 to 100 where 0 is no effect and 100 is complete control. A dash (-) response means no test result.

[11] = test system: sedge, umbrella (small-flower umbrella sedge, Cyperus difformis); experiment: Test C flooded paddy test; conditions: Flood, 0 is no effect, 100 is complete control
From the text: as §3

[12] = test system: ducksalad (Heteranthera limosa); experiment: Test C flooded paddy test; conditions: Flood, 0 is no effect, 100 is complete control
From the text: as §3

rice (Oryza sativa) = experiment: Test C flooded paddy test; conditions: Flood, 0 is no effect, 100 is complete control
From the text: as §3

[13] = test system: blackgrass (Alopecurus myosuroides); experiment: Test A postemergence
How it was run: as §1

[14] = test system: barnyardgrass (Echinochloa crus-galli); experiment: Test A postemergence
How it was run: as §1

corn (Zea mays) = experiment: Test A postemergence
How it was run: as §1

[15] = test system: ragweed (common ragweed, Ambrosia elatior); experiment: Test A postemergence
How it was run: as §1

[16] = test system: Galium (catchweed bedstraw, Galium aparine); experiment: Test A postemergence
How it was run: as §1

[17] = test system: pigweed (Amaranthus retroflexus); experiment: Test A postemergence
How it was run: as §1

[18] = test system: ryegrass, Italian (Italian ryegrass, Lolium multiflorum); experiment: Test A postemergence
How it was run: as §1

Kochia (Kochia scoparia) [19] = experiment: Test A postemergence
How it was run: as §1

[20] = test system: wheat (Triticum aestivum); experiment: Test A postemergence
How it was run: as §1

[21] = test system: giant foxtail (Setaria faberii); experiment: Test A postemergence
How it was run: as §1

[22] = preemergence, 0 to 100 scale (0 no effect, 100 complete control)
[23] = 125 g ai/ha, postemergence, visual injury rating on 0 to 100 scale (0 no effect, 100 complete control), approx. 10 d
[24] = 500 g ai/ha, postemergence, 0 to 100 scale, 0 no effect, 100 complete control
[25] = Preemergence, visual injury after approximately 10 d, 0 to 100 scale where 0 is no effect and 100 is complete control
[26] = 125 g ai/ha, postemergence, visual rating after approx. 10 d, 0 to 100 scale (0 no effect, 100 complete control)
[27] = Postemergence, 500 g ai/ha, 0 to 100 scale where 0 is no effect and 100 is complete control

Structure (SMILES): O=C1NCC(c2ccc(F)cc2F)C1C(=O)Nc1cccc(F)c1F (stereo not shown) [Compound 455]
- Plant response rating, Barnyardgrass [1, 22]: 70
- Barnyardgrass plant response rating (0 to 100 scale, 0 is no effect, 100 is complete control) ([1]; Preemergence): 90
- Plant response rating, Ragweed [2, 22]: 0
- Ragweed plant response rating (0 to 100 scale, 0 is no effect, 100 is complete control) ([2]; Preemergence): 0
- Plant response rating, Pigweed [3, 22]: 0
- Pigweed plant response rating (0 to 100 scale, 0 is no effect, 100 is complete control) ([3]; Preemergence): 50
- Plant response rating, Ryegrass, Italian [4, 22]: 0
- Ryegrass, Italian plant response rating (0 to 100 scale, 0 is no effect, 100 is complete control) ([4]; Preemergence): 0
- Plant response rating, Kochia (Kochia (Kochia scoparia) [5]; [22]): 20
- Kochia plant response rating (0 to 100 scale, 0 is no effect, 100 is complete control) (Kochia (Kochia scoparia) [5]; Preemergence): 50
- Plant response rating, Foxtail, Giant [6, 22]: 80
- Foxtail, Giant plant response rating (0 to 100 scale, 0 is no effect, 100 is complete control) ([6]; Preemergence): 90
- Plant response rating, Barnyardgrass [7]: 75
- Plant response rating, Rice (rice (Oryra sativa)): 0
- Plant response rating, Sedge, Umbrella [8]: 0
- Plant response rating, Ducksalad [9]: 100
- Plant response rating (scale of 0 to 100), Barnyardgrass ([10]; 31 g ai/ha): 0
- Plant response rating (scale of 0 to 100), Barnyardgrass ([10]; 62 g ai/ha): 0
- Plant response rating (scale of 0 to 100), Barnyardgrass ([10]; 125 g ai/ha): 0
- Plant response rating (scale of 0 to 100), Barnyardgrass ([10]; 250 g ai/ha): 50
- Plant response rating (scale of 0 to 100), Sedge, Umbrella ([11]; 31 g ai/ha): 0
- Plant response rating (scale of 0 to 100), Sedge, Umbrella ([11]; 62 g ai/ha): 0
- Plant response rating (scale of 0 to 100), Sedge, Umbrella ([11]; 125 g ai/ha): 0
- Plant response rating (scale of 0 to 100), Sedge, Umbrella ([11]; 250 g ai/ha): 0
- Plant response rating (scale of 0 to 100), Ducksalad ([12]; 31 g ai/ha): 0
- Plant response rating (scale of 0 to 100), Ducksalad ([12]; 62 g ai/ha): 40
- Plant response rating (scale of 0 to 100), Ducksalad ([12]; 125 g ai/ha): 80
- Plant response rating (scale of 0 to 100), Ducksalad ([12]; 250 g ai/ha): 100
- Plant response rating (scale of 0 to 100), Rice (rice (Oryza sativa); 31 g ai/ha): 0
- Plant response rating (scale of 0 to 100), Rice (rice (Oryza sativa); 62 g ai/ha): 0
- Plant response rating (scale of 0 to 100), Rice (rice (Oryza sativa); 125 g ai/ha): 0
- Plant response rating (scale of 0 to 100), Rice (rice (Oryza sativa); 250 g ai/ha): 0
- Blackgrass plant response rating [13, 23]: 0
- Plant response rating, Blackgrass [13, 24]: 0
- Barnyardgrass plant response rating [14, 23]: 70
- Plant response rating, Barnyardgrass [14, 24]: 80
- Corn plant response rating (corn (Zea mays); [23]): 0
- Plant response rating, Corn (corn (Zea mays); [24]): 0
- Ragweed plant response rating [15, 23]: 0
- Plant response rating, Ragweed [15, 24]: 0
- Galium plant response rating [16, 23]: 30
- Plant response rating, Galium [16, 24]: 70
- Pigweed plant response rating [17, 23]: 50
- Plant response rating, Pigweed [17, 24]: 60
- Ryegrass, Italian plant response rating [18, 23]: 0
- Plant response rating, Ryegrass, Italian [18, 24]: 0
- Kochia plant response rating (Kochia (Kochia scoparia) [19]; [23]): 60
- Plant response rating, Kochia (Kochia (Kochia scoparia) [19]; [24]): 70
- Wheat plant response rating [20, 23]: 0
- Plant response rating, Wheat [20, 24]: 30
- Foxtail, Giant plant response rating [21, 23]: 70
- Plant response rating, Foxtail, Giant [21, 24]: 80

Structure (SMILES): CC(C)Oc1cccc(C2CNC(=O)C2C(=O)Nc2ccc(F)c(F)c2F)c1 (stereo not shown) [Compound 554]
- Plant response rating, Barnyardgrass [1, 25]: 90
- Barnyardgrass plant response rating (0 to 100 scale, 0 is no effect, 100 is complete control) ([1]; Preemergence): 90
- Plant response rating, Ragweed [2, 25]: 20
- Ragweed plant response rating (0 to 100 scale, 0 is no effect, 100 is complete control) ([2]; Preemergence): 70
- Plant response rating, Pigweed [3, 25]: 0
- Pigweed plant response rating (0 to 100 scale, 0 is no effect, 100 is complete control) ([3]; Preemergence): 30
- Plant response rating, Ryegrass, Italian [4, 25]: 20
- Ryegrass, Italian plant response rating (0 to 100 scale, 0 is no effect, 100 is complete control) ([4]; Preemergence): 40
- Plant response rating, Kochia (Kochia (Kochia scoparia) [5]; [25]): 70
- Kochia plant response rating (0 to 100 scale, 0 is no effect, 100 is complete control) (Kochia (Kochia scoparia) [5]; Preemergence): 90
- Plant response rating, Foxtail, Giant [6, 25]: 90
- Foxtail, Giant plant response rating (0 to 100 scale, 0 is no effect, 100 is complete control) ([6]; Preemergence): 90
- Plant response rating, Barnyardgrass [7]: 55
- Plant response rating, Rice (rice (Oryra sativa)): 25
- Plant response rating, Sedge, Umbrella [8]: 0
- Plant response rating, Ducksalad [9]: 100
- Plant response rating, Blackgrass [13, 26]: 60
- Plant response rating, Blackgrass [13, 27]: 70
- Plant response rating, Barnyardgrass [14, 26]: 80
- Plant response rating, Barnyardgrass [14, 27]: 90
- Plant response rating, Corn (corn (Zea mays); [26]): 40
- Plant response rating, Corn (corn (Zea mays); [27]): 70
- Plant response rating, Ragweed [15, 26]: 0
- Plant response rating, Ragweed [15, 27]: 30
- Plant response rating, Galium [16, 26]: 60
- Plant response rating, Galium [16, 27]: 60
- Plant response rating, Pigweed [17, 26]: 0
- Plant response rating, Pigweed [17, 27]: 0
- Plant response rating, Ryegrass, Italian [18, 26]: 40
- Plant response rating, Ryegrass, Italian [18, 27]: 90
- Plant response rating, Kochia (Kochia (Kochia scoparia) [19]; [26]): 20
- Plant response rating, Kochia (Kochia (Kochia scoparia) [19]; [27]): 50
- Plant response rating, Wheat [20, 26]: 20
- Plant response rating, Wheat [20, 27]: 50
- Plant response rating, Foxtail, Giant [21, 26]: 70
- Plant response rating, Foxtail, Giant [21, 27]: 80
